# Experimental data as given in patent US20110064833A1, “SYNERGISTIC HERBAL COMPOSITION AND PROCESS OF PREPARATION THEREOF” (priority 2007, published 2011).
# Tested on: streptozotocin diabetic rats
# Assay: In-vivo efficacy screening in streptozotocin diabetic Sprague Dawley rats, 35 days oral gavage
# From the text: The number of animals per dose group is five and is kept for examination and acclimatization for a week period at the start of the study. The total number of dose groups is six along with vehicle control. The different groups are G1-Vehicle control, G2-Diabetic control, G-3 Diabetic animals treated with Pioglitazone (Standard anti-diabetic drug). […] Blood is collection under CO2 anesthesia by retro orbital (ROP) plexus method and FBG analysis. Rats are fed with 5% glucose water for two days before STZ injection and are fasted for 12 hours before administering streptozotocin. The rats are injected intra-peritoneal with 45 mg/kg-body weight of streptozotocin in a citrate buffer ph: 4.5 and allowed for week recovery. Rats are fasted for 12 hours after 7th day of STZ injection and blood collected in heparin as the anti-coagulant, under CO2 anesthesia and analyzed for FBG. Rats that have the range of FBG beyond 250 mg/dl and above are considered for the study.
# Selection, randomization and grouping of the animals into different treatment groups with the FBG range of 250 mg/dl is undertaken as above. […] The dosage volume administered to individual rat was adjusted according to its most recently recorded body weights. […] All signs of ill health, together with any behavioral changes or reaction to treatment are recorded for individual animals. […]
Structure (SMILES),"increase in fasting blood glucose from baseline at the end of 35 days (glebenclamide, dose not stated)",increase in fasting blood glucose from baseline at the end of 35 days (pioglitazone 20 mg/kg-body weight)
COc1ccc(Cl)cc1C(=O)NCCc1ccc(S(=O)(=O)NC(=O)NC2CCCCC2)cc1 [glebenclamide],about 110%,–
CCc1ccc(CCOc2ccc(CC3SC(=O)NC3=O)cc2)nc1 (centres unmarked) [pioglitazone],–,about 98%
